# Laboratory results as given in patent US12673077B2, “Anthelmintic probiotic compositions and methods” (priority 2014, dated 2026).
# Read-outs that look alike come from different tables or passages of the source.
# B1: Cry5B: Bacillus thuringiensis crystal (Cry) protein Cry5B, purified protein (sequence FIG. 2, SEQ ID NO:1) (protein, listed as Bacillus thuringiensis)
# chain: MATINELYPVPYNVLAHPIKEVDDPYSWSNLLKGIQEGWEEWGKTGQKKLFEDHLTIAWNLYKTGKLDYFALTKASISLIGFIPGAEAAVPFINMFVDFVWPKLFGANTEGKDQQLFNAIMDAVNKMVDNKFLSYNLSTLNKTIEGLQGNLGLFQNAIQVAICQGSTPERVNFDQNCTPCNPNQPCKDDLDRVASRFDTANSQFTQHLPEFKNPWSDENSTQEFKRTSVELTLPMYTTVATLHLLLYEGYIEFMTKWNFHNEQYLNNLKVELQQLIHSYSETVRTSFLQFLPTLNNRSKSSVNAYNRYVRNMTVNCLDIAATWPTFDTHNYHQGGKLDLTRIILSDTAGPIEEYTTGDKTSGPEHSNITPNNILDTPSPTYQHSFVSVDSIVYSRKELQQLDIATYSTNNSNNCHPYGLRLSYTDGSRYDYGDNQPDFTTSNNNYCHNSYTAPITLVNARHLYNAKGSLQNVESLVVSTVNGGSGSCICDAWINYLRPPQTSKNESRPDQKINVLYPITETVNKGTGGNLGVISAYVPMELVPENVIGDVNADTKLPLTQLKGFPFEKYGSEYNNRGISLVREWINGNNAVKLSNSQSVGIQITNQTKQKYEIRCRYASKGDNNVYFNVDLSENPFRNSISFGSTESSVVGVQGENGKYILKSITTVEIPAGSFYVHITNQGSSDLFLDRIEFVPKIQFQFCDNNNLHCDCNNPVDTDCTFCCVCTSLTDCDCNNPRGLDCTLCCQVENQLPSFVTLTDLQNITTQVNALVASSEHDTLATDVSDYEIEEVVLKVDALSGEVFGKEKKALRKLVNHTKRLSKARNLLIGGNFDNLDAWYRGRNVVNVSDHELFKSDHVLLPPPTLYSSYMFQKVEESKLKANTRYTVSGFIAHAEDLEIVVSRYGQEVKKVVQVPYGEAFPLTSRGAICCPPRSTSNGKPADPHFFSYSIDVGTLDVEANPGIELGLRIVERTGMARVSNLEIREDRPLKKNELRNVQRAARNWRTAYDQERAEVTALIQPVLNQINALYENEDWNGAIRSGVSYHDLEAIVLPTLPKLNHWFMSDMLGEQGSILAQFQEALDRAYTQLEESTILHNGHFTTDAANWTIEGDAHHAILEDGRRVLRLPDWSSSVSQTIEIENFDPDKEYQLVFHAQGEGTVSLQHGEEGEYVETHPHKSANFTTSHRQGVTFETNKVTVEITSEDGEFLVDHIALVEAPLPTDDQSSDGNTTSNTNSNTSMNNNQ
# modifications: pesticidal crystal (Cry)
# Columns and labels:
# [1] = test system: A. ceylanicum; settings: cited from earlier work; for % Parasite reduction: hamsters
# [2] = test system: Ancylostoma ceylanicum hookworms; assay: A. ceylanicum hookworm curative experiment in hamsters (worm burdens, fecal egg counts); type: in vivo; settings: single 10 mg/kg (71 nmol/kg) Cry5B dose per os
# Experimental: (A) Intestinal hookworm burdens in nine hamsters following treatment with PY79-vector or PY79-Cry5B (10 mg/kg Cry5B) (error bars in all panels show standard errors). The average worm burdens were 18.6±2.6 and 1.3±0.3 for PY79-vector and PY79-Cry5B, respectively. (B) Fecal egg counts on day −1, day +1, and day +3 relative to the day of treatment. The actual egg counts for PY79-vector and PY79-Cry5B were 965±193 and 1,044±99, respectively, on day −1, 1,055±230 and 94±60, respectively, on day +1, and 1,055±227 and 100±42, respectively, on day +3. EPG, eggs per gram of feces. (C) In vivo dose-response experiment with 12 hamsters. […]
# For in vivo curative experiments, male hamsters were infected per os with 150 A. ceylanicum infectious larvae. On day 17 postinoculation (p.i.), a fecal sample was collected from each hamster, and the number of eggs was counted using the modified McMaster technique (13). […] The hamsters were sacrificed on day 22 p.i., and intestinal parasite burdens were determined as described previously (14). The one-tailed Mann-Whitney test was performed to compare the two groups for significance in the experiment using a dose of 10 mg/kg of body weight (data were calculated and plotted using Prism 5 [GraphPad Software Inc., La Jolla, CA]). […]
molecule,measurement,setting,value
"CCCSc1ccc2nc(NC(=O)OC)[nH]c2c1 [Albendazole, albendazole]",% Parasite reduction,[1]; 1.25 mg/kg (4.7 μmol/kg),88%
"c1ccc([C@H]2CN3CCSC3=N2)cc1 [Levamisole, levamisole]",% Parasite reduction,[1]; 10 mg/kg,60%
"CN1CCCN=C1/C=C/c1cccs1 [Pyrantel, pyrantel]",% Parasite reduction,[1]; 10 mg/kg,87%
"C/C(=N/c1ccc(/N=C/c2ccc(/C=N/c3ccc(/N=C(/C)N(C)C)cc3)cc2)cc1)N(C)C [Tribendimidine, tribendimidine]",% Parasite reduction,[1]; 10 mg/kg,75%
B1,% reduction of hookworm burden,"[1]; purified protein 10 mg/kg, previously published data (ref 14)",65%
same,% reduction of hookworm burden relative to control,[2],93%
